Measured values as given in patent US8962003B2, “Insect behaviour modifying compounds” (The New Zealand Institute for Plant and Food Research …, priority 2003, dated 2015).

Assays:
[1] = tested on: Frankliniella occidentalis; assay: Y-tube olfactometer bioassay; format: in vivo; conditions: female Frankliniella occidentalis; for MAC (%) = Minimum Active Concentration to elicit a response from thrips (P < 0.05): 1 µl undiluted or diluted in hexane; for % Response: percentage of thrips to walk up odour-laden arm: same cell prints a '(t value)' in brackets
Procedure: The thrips behaviour-modifying activity of a compound may be evaluated in a glass Y-tube olfactometer following the method described by de Kogel et al. (de Kogel, W. J., Koschier, E. H. and Visser, J. H. Proc. Exper. & Appl. Entomol., N. E. V. Amsterdam, (1999) 10, 131-135.) and Koschier et al. (Koschier, E. H., De Kogel, W. J. and Visser, J. H. (2000) Jounrnal of Chemical Ecology, 26, 2643-2655).
The olfactory behaviour of thrips toward volatile compounds was evaluated in a glass Y-tube olfactometer following the method described by de Kogel et al. (de Kogel, W. J., Koschier, E. H. and Visser, J. H. Proc. Exper. & Appl. Entomol., N. E. V. Amsterdam, (1999) 10, 131-135.) and Koschler et al. (Koschier, E. H., De Kogel, W. J. and Visser, J. H. (2000) Journal of Chemical Ecology, 26, 2643-2655.). The Y-tube has two branching arms at an angle of 45° leading into a single tube, all 60 mm long, with an internal diameter of 5 mm. The arms of the Y-tube were connected to glass Wheaton Micro Kit® adapters that were in turn attached to 4 ml glass vials each containing a 1 cm^2 piece of filter paper (Whatman No. 1). The Y-tube and Wheaton apparatus were placed in a grey-box (to prevent external stimuli influencing thrips' behaviour), located in a darkened, air-conditioned room (22±3° C.). The Y-tube was placed at an inclining position of 25° between the Y-tube and horizontal plane and illuminated from above by a halogen lamp (780 lux). One microliter of the volatile compounds, either undiluted or diluted in hexane (95%, Pronalys AR), was applied to filter paper in one vial, while 1 μl of hexane was applied to filter paper held in the second vial. Air was drawn through activated charcoal before entering the Wheaton apparatus and Y-tube using a suction pump (AR Harris Co. Ltd, Christchurch) producing an airflow of 5 cm/s through each arm and 10 cm/s at the base of the Y-tube. Air was drawn through for 30 min before introducing the first thrips. Connections between the activated charcoal, Wheaton apparatus, Y-tube and suction pump consisted of silicone tubing.
An individual female Frankliniella occidentalis thrips of unknown age, that had been starved overnight, was released into the Y-tube using a small aspirator. The aspirator was made by placing a 1 ml pipette tip over the end of silicone tubing (5 mm diameter) the end of which was covered with fine mesh; the pipette tip was cut so it projected 5 mm beyond the end of the silicone tubing. A thrips was sucked up into the pipette tip, which was then placed at the base of the Y-tube. Most thrips walked up into the Y-tube within a few seconds, at which time the silicone air suction tubing was reconnected to the glass Y. The choice between clean or odour laden airflow was recorded when the thrips reached the far end of one arm and only those thrips that made the choice within 3 min were recorded. After every 5 thrips the Y-tube and Wheaton apparatus were rotated […] to avoid position effects. After 25 choices were recorded, the Y-tube and Wheaton apparatus were thoroughly cleaned with acetone (99.5%, BDH) and allowed to dry before repeating the experiment. Each compound and dilution was replicated 3 times.

[2] = tested on: Frankliniella occidentalis; assay: Greenhouse trials with water traps or yellow sticky traps; format: in vivo; conditions: 24 h, capsicum greenhouse, t-value in brackets in same cell
Excerpt: Greenhouse trials were undertaken using water traps similar to those used in the field trials (Example 2), or yellow sticky traps (Veg-Gro Supplies Ltd, Auckland) to examine the response of thrips to volatile compounds. The greenhouse, located in Auckland, is ≈88×200 m, constructed of glass, and is used to grow capsicum (Capsicum annuum var. Special, Fiesta, Boogie and Stirit). Water traps were placed 20 to 24 m apart within a row and 24 m apart between rows. There were 6 baited water traps for each compound tested and 6 water-only traps randomly positioned in a 6×2 grid in the greenhouse. Traps were positioned just above the crop canopy. Water traps (2 L containers, 16×16×8.5 cm) were assembled as described in Example 2 and left in the greenhouse for 24 h, after which time the containers were sealed for transport to a laboratory. Insects from each water trap were transferred to 5 ml glass tubes containing 75% ethanol within 24 h of collecting them from the greenhouse. Catches from each treatment were analysed under a stereomicroscope (100×) and the proportion of Frankliniella occidentalis was determined.
Yellow sticky traps (24.4×20 cm) were treated with a compound or water using a 30 ml spray mist dripulator (Arthur Holmes, Wellington) held 10 cm away from the sticky trap. Four sprays were applied to each side, coating the sticky trap in approximately 1 ml of water or compound. Sticky traps sprayed with the same treatment were separated using black metal foldback clips (19 mm, Celco), suspended within a cardboard box (29.5×22.3×30.2 cm), which was in turn sealed within a plastic bag for transport to the greenhouse. Traps were suspended in the greenhouse just above the crop canopy within 3 h after spraying, using the same layout as for the water traps (20 to 24 m apart within a row, 24 m between rows, in a 6×2 grid). After 24 h the traps were collected by wrapping each trap in plastic wrap for transport to the laboratory. The total number of thrips on the traps were counted using 10× magnification. Thrips were removed from the sticky traps using De-Solv-it® and Johnsons baby oil®. A subsample from each treatment was further analysed under a stereomicroscope (100×) and the proportion of Frankliniella occidentalis was determined.

Thrips obscuratus [3] = conditions: Penman et al. 1982; cited from earlier work
[4] = tested on: Frankliniella occidentalis; conditions: literature; anisaldehyde with blue sticky or yellow water traps; WO 03/055309 Y-tube; cited from earlier work
Thrips tabaci [5] = conditions: cited from earlier work
Thrips hawaiiensis = conditions: field trials; cited from earlier work
Thrips coloratus = conditions: field trials; cited from earlier work
Thrips flavus = conditions: cited from earlier work
Thrips obscuratus [6] = assay: Field trials with baited water traps; format: in vivo; conditions: female Thrips obscuratus; field water traps, 1 ml compound, 24 or 48 h; * = P < 0.05 vs control trap; brackets = backtransformed 95% CI
Excerpt: (§1) Water traps were placed out into a field comprising several species of grasses, white clover (Trifolium repens L.) and several weed species (≈100 mm in height). Grass and cereal fields surrounded the field trial area on three sides and poplar (Poplar nigra L.) trees on the other, on the Canterbury Agricultural Research Centre campus. Each field trial consisted of five replicates of five treatments including a water control, positive control compound (ethyl nicotinate, ethyl isonicotinate, or benzaldehyde, Table 1) and three test compounds set out in the field in a grid (10×10 m) using a Latin square design with the trial area at least 100 m from the field boundary/shelter belt. White plastic containers (2 L capacity, 16×16×8.5 cm) containing approximately 1.7 L water, 0.4 ml of formalin (to prevent fungal growth) and 0.08 ml tween were placed above the crop canopy on inverted white (2 L capacity, 16×16×8.5 cm) or black plastic containers (24 cm diameter, 13 cm tall). For each treatment, 1 ml of a compound or water was added to a glass vial (12×32 mm screw thread vial) containing a 4.5 cm^2 piece of rolled filter paper (Whatman No. 1) that projected 1 cm above the top of the vial, creating a wick. The glass vial was suspended above the water in the centre of the trap using wire (0.5 mm diameter). The vials were removed after 24 or 48 h and the containers were sealed for transport to a laboratory. The contents from a water trap were poured through a sieve (250 μm mesh) and all insects were washed into a 50 ml Schott bottle within 24 h of collecting them from the field. All thrips were pipetted from each water trap sample and counted. Thrips were mounted on to slides using polyvinyl alcohol glue (1 part polyvinyl alchol: 4 parts water, 1 part lactic acid: 1.25 parts phenyl) from each trap using the following subsample method: less than 50 thrips, all thrips were mounted on to a slide; 50 to 100 thrips, a subsample of 25 thrips were mounted on to a slide; more than 100 thrips, a subsample of 50 thrips were mounted on to a slide. The slides were examined under 100× magnification using a compound microscope to identify thrips species. Subsampled thrips were sexed and identified to species according to Mound and Walker (Mound, L. A. and Walker, A. K. 1982. Terebrantia (Insecta: Thysanoptera). Fauna of New Zealand No. 1.). The mean number of each species for each treatment was calculated by multiplying the proportion of each species within a subsample with the total number of thrips counted in each water trap.

Thrips tabaci [7] = assay: Field trials with baited water traps; format: in vivo; conditions: field trials (Table 1)
Excerpt: as §1

[8] = Yellow sticky trap, about 1 ml sprayed, >95% of thrips caught were Frankliniella occidentalis

Row | Structure (SMILES) | MAC (%) = Minimum Active Concentration to elicit a response from thrips (P < 0.05) [1] [%] | % Response: percentage of thrips to walk up odour-laden arm [1] | Average ratio of thrips caught relative to water treated traps ([2]; Water trap, around 66% of thrips caught were Frankliniella occidentalis) | Average ratio of thrips caught relative to water treated traps [2, 8] | Attractancy to Thrips obscuratus (literature) (Thrips obscuratus [3]) | Attractancy to Frankliniella occidentalis (literature) [4] | Attractancy to Thrips tabaci (literature) (Thrips tabaci [5]) | Attractancy to Thrips hawaiiensis (literature) (Thrips hawaiiensis) | Attractancy to Thrips coloratus (literature) (Thrips coloratus) | Attractancy to Thrips flavus (literature) (Thrips flavus) | Average ratio of female thrips caught relative to water traps (95% CI) (Thrips obscuratus [6]) | Attractancy to Thrips tabaci (in words) (Thrips tabaci [7])
1 | CCOC(=O)c1cccnc1 [Ethyl nicotinate, reference compound] | 0.01 | 60.0 (0.043) % | 1 (0.1) | 1.1 (0.4) | potent attractant | less attractive | varied in its attractiveness | – | – | – | – | –
2 | CCOC(=O)c1ccccc1N [ethyl anthranilate] | – | – | – | – | – | – | – | attractant | attractant | attractant | – | –
3 | COC(=O)c1ccccc1N [methyl anthranilate] | – | – | – | – | – | – | not for Thrips tabaci | attractant | attractant | – | – | –
4 | CC(=O)c1ccncc1 [Methyl 4-pyridyl ketone] | 0.001 | 77.3 (<0.001) % | – | 3.1 (6.6) | – | – | – | – | – | – | 0 (0.0, >1000) | attractants
